Series [1] can be described thus: Volume of distribution at steady state in rabbit at 5 mg/kg, iv. In kind it is ADME, organism-based, Oryctolagus cuniculus. As to conditions: in vivo, read-out: Vdss.
Series [2] in a line: AUC in Wistar rat liver at 10 mg/kg, po. In kind it is ADME, organism-based.
The nature of series [3]: AUC in Wistar rat at 300 mg/kg, po. In kind it is ADME, organism-based. As to conditions: in vivo.
Series [4] concerns Rattus norvegicus. The series is described as follows: In-vivo agonist activity at FXR in orally dosed Han Wistar rat assessed as upregulation of SHP mRNA level in ileum administered via oral gavage once daily for 14 days measured post last dose by qRT-PCR analysis. In kind it is functional, organism-based.
The species named for series [5] is Mus musculus. Description: Anti Steato-hepatitic activity in C57BL/6J mouse STAM model assessed as change in Nr0b2 gene level in liver. In kind it is functional, organism-based.
The nature of series [6]: Half life in rabbit at 5 mg/kg, iv. In kind it is ADME, organism-based, Oryctolagus cuniculus. Particulars: in vivo.
Series [7] addresses T1, Nuclear receptor subfamily 1 group I member 2 (Homo sapiens, UniProt O75469).
T1 sequence (O75469 whole entry): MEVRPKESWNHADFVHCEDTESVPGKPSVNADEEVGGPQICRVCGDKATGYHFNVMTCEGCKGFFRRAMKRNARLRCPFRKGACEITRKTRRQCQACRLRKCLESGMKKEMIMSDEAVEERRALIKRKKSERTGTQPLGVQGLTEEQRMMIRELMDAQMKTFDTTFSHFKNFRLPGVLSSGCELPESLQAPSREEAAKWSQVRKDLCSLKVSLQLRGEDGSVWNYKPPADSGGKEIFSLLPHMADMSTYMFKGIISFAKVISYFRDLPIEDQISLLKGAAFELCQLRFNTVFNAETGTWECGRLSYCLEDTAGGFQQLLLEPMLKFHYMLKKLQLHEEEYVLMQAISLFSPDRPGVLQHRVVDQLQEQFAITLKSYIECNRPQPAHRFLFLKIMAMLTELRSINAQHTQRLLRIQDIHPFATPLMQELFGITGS
The series is described as follows: Agonist activity at PXR (unknown origin) incubated for 2 hrs by TR-FRET assay. On the technique in general: In TR-FRET formats the signal depends on donor and acceptor labels being close together.

Series [8] in a line: Oral bioavailability in Wistar rat at 3 mg/kg. In kind it is ADME, organism-based. Particulars: in vivo.
Series [9] deals with T2, Progesterone receptor (Homo sapiens, UniProt P06401).
T2 sequence (P06401 whole entry): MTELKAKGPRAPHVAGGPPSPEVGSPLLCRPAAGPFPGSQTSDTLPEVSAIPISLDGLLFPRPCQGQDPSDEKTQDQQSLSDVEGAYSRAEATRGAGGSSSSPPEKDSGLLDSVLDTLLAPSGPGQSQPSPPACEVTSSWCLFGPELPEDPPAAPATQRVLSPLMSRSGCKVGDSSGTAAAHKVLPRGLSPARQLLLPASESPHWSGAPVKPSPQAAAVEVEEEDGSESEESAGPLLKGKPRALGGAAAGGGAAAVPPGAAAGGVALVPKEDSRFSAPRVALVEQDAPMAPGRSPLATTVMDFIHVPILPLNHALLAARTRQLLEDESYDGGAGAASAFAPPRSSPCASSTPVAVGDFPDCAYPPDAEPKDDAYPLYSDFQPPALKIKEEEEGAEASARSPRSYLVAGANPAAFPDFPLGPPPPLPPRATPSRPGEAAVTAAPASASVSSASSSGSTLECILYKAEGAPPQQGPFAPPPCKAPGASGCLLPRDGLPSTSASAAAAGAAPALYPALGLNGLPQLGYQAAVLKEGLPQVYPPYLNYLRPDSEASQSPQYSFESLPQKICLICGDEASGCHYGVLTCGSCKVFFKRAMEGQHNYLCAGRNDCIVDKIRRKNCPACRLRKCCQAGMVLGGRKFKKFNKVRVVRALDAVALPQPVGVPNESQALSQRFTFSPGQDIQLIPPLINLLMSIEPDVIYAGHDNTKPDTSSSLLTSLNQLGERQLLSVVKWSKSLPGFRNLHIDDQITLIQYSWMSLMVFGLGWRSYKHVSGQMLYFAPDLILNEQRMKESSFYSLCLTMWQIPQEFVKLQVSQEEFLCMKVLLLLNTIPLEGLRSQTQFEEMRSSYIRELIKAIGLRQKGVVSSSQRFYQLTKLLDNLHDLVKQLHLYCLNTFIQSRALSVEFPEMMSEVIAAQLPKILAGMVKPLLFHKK
The series is described as follows: Agonist activity at Progesterone receptor (unknown origin) incubated for 2 hrs by TR-FRET assay.

Each structure is given as a SMILES string. Calls of active or inactive are those of the source. The rule behind the calls is not given here.

As to `Cn1nc(C(=O)N(Cc2ccccc2)Cc2ccc(C(=O)O)cc2)c2c1-c1cc(Cl)ccc1OC2` [NIDUFEXOR], the Vd in series [1] is 0.6 L/kg. The area under the curve (AUC) amounted to 36.7 µM·h in series [2] and 1040 µM·h in [3]. Also, in series [4], the Activity entry was “Dose-dependent effect”. In addition, the result in series [5] was Active. Also, the half-life in series [6] is 4.4 h. Further, the 50% effective concentration (EC50) in series [7] and in [9] was over 30 µM throughout. The molecule further came in with a bioavailability in [8] of 63%.

For orientation: AUC means the area under the concentration-time curve, a measure of exposure. Higher therefore signals high exposure. By half-life is commonly meant how long it takes for the measured level to halve. The low end stands for rapid decline, the high end for slow decline. A word on the EC50: it is the concentration at which the effect is half-maximal. For orientation: bioavailability means the share of a dose that reaches the circulation, judged against a reference dose that is usually intravenous. Higher therefore signals much systemic uptake.

For the origin of these results see ChEMBL document CHEMBL4402557, “Nidufexor (LMB763), a Novel FXR Modulator for the Treatment of Nonalcoholic Steatohepatitis” (J Med Chem, 2020).
